Measured values taken from patent publication US20240327406A1, “POTASSIUM CHANNEL MODULATORS” (Autifony Therapeutics Limited, priority 2021, published 2024).
Where two headings read alike, the source gives them in different places.

What was measured:
[1] = Determination of in vivo pharmacokinetic parameters (blood and brain concentrations); conditions: male, rat; for Kp: brain and blood, oral dosing 1 mg/kg, read-out: AUC B/B (brain/blood) ratio; for Kp at 0.5 h: brain and heart blood, intravenous, 0.5 mg/kg, 0.5 h after dose administration, read-out: Brain/Heart Blood conc @0.5 hr
Protocol: Adult male rats (Charles River, Italy) are dosed with test compound orally at 1 mg/kg (5 ml/kg, in 5% v/v DMSO, 0.5% w/v HPMC in water) and intravenously at 0.5 mg/kg (2 ml/kg, in 5% v/v DMSO 40% w/v PEG400 in saline). After oral administration, blood samples are collected under deep Isofluorane anesthesia from the portal vein and heart of each rat (1 rat per time point). After intravenous administration, serial blood samples are collected from the lateral tail vein of each rat. Blood and brain samples are collected at a single timepoint of 0.5 h after dose administration for these animals. In all cases, blood samples are collected into potassium EDTA tubes.
A further group of rats (n=1 per test compound) receive a single intravenous administration of the PgP transport inhibitor, Elacridar (3 mg/kg) shortly before the oral administration of the test compound at 1 mg/kg, as above.
Blood and brain samples can be assayed for test compound concentration using a method based on protein precipitation with acetonitrile followed by HPLC/MS-MS analysis with an optimized analytical method.
The concentrations of test compound in blood (expressed as ng/ml) and brain (expressed as ng/g) at the different time points following either oral or intravenous dosing are analysed using a non-compartmental pharmacokinetic model using WinNonLin Professional version 4.1. The following parameters are derived:
Intravenous dosing: Maximum concentration over time (Cmax), integrated concentration over time (AUC), clearance (Clb), volume of distribution (Vss), half-life (t1/2) and Brain/Heart Blood conc @0.5 hr.
Oral dosing: Cmax, time of maximum concentration (Tmax), AUC, bioavailability (F %), fraction absorbed (Fa %), blood to brain ratio (AUC B/B), and Fold-change in AUC B/B in the presence of Elacridar.

[2] = target: T1, human Kv3.1 channels (hKv3.1) (Homo sapiens, UniProt P48547); test: Measurement of Kv3 channel modulation: Kv3.1 assay (IonWorks Quattro whole-cell electrophysiology); type: cell-based; conditions: for Kv3.1 max R %: normalised to maximum effect of reference compound (50 microM); for EC50: rounded to one decimal place, read-out: Kv3.1 pEC50 (converted)
T1 sequence (P48547 1-501 limits assumed): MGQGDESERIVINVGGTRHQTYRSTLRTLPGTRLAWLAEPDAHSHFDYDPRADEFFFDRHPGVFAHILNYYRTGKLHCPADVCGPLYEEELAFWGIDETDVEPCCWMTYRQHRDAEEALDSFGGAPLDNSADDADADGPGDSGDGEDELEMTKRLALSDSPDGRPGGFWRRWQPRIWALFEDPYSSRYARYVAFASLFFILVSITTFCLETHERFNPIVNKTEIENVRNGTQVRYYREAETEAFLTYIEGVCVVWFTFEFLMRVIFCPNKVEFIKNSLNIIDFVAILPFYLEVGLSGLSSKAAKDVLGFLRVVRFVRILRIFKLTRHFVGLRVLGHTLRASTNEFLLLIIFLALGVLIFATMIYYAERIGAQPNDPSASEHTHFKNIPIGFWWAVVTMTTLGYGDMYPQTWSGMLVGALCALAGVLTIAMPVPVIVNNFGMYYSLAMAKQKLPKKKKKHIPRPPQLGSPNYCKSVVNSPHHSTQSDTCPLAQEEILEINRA
Protocol: The ability of the compounds of the invention to modulate the voltage-gated potassium channel subtypes Kv3.4/Kv3.3/Kv3.2/Kv3.1 may be determined using the following assay. Analogous methods may be used to investigate the ability of the compounds of the invention to modulate other channel subtypes.
Human embryonic kidney (HEK)-hKv3.1 cell line is generated by transfecting HEK-293 cells with an expression vector with human Kv3.1 (NM_004976.4). Cells are cultured with MEM supplemented with 10% Heat-Inactivated FBS, 2 mM L-glutamine, 1% Penicillin-Streptomycin, and 0.6 mg/ml of Geneticin (G418). HEK-hKv3.1b cells were amplified in T175 cm2 flask at 37° C. with 5% CO2, using MEM amplification medium, containing the G418 selection antibiotic (0.6 mg/ml). Cells were detached every 3-4 days, using DPBS to wash twice the flask, then TrypLE to dislodge the cells, and re-plated at a density of 2-4×10^6 cells/flask.
The day of the experiment, cells are removed from the incubator and the culture medium removed. Cells are washed with 5 ml of Dulbecco's PBS (DPBS) calcium and magnesium free and detached by the addition of 3 ml Versene (Invitrogen, Italy) followed by a brief incubation at 37° C. for 5 minutes. The flask is tapped to dislodge cells and 10 ml of DPBS containing calcium and magnesium is added to prepare a cell suspension. The cell suspension is then placed into a 15 ml centrifuge tube and centrifuged for 2 min at 1200 rpm. After centrifugation, the supernatant is removed and the cell pellet re-suspended in 4 ml of DPBS containing calcium and magnesium using a 5 ml pipette to break up the pellet. Cell suspension volume is then corrected to give a cell concentration for the assay of approximately 3 million cells per ml.
Experiments are conducted at r.t. using IonWorks Quattro™ planar array electrophysiology technology (Molecular Devices Corp.) with PatchPlate™ PPC. Stimulation protocols and data acquisition are carried out using a microcomputer (Dell Pentium 4). Planar electrode hole resistances (Rp) are determined by applying a 10 mV voltage step across each well. These measurements are performed before cell addition. After cell addition and seal formation, a seal test is performed by applying a voltage step from −80 mV to −70 mV for 160 ms. Following this, amphotericin-B solution is added to the intracellular face of the electrode to achieve intracellular access. Cells are held at −70 mV. Leak subtraction is conducted in all experiments by applying 50 ms hyperpolarizing (10 mV) prepulses to evoke leak currents followed by a 20 ms period at the holding potential before test pulses.
For hKv3.2 and hKv3.1, assays from the holding potential of −70 mV, a first test pulse at −15 mV was applied for 100 ms and after 100 ms at −70 mV a second pulse at +40 mV was applied for 50 ms. Cells were then maintained for 100 ms at −100 mV and another pulse from […] to +40 mV (duration 50 ms) was applied to clamp later the voltage at −40 mV during 200 ms
The intracellular solution contains the following (in mM): K-gluconate 100, KCl 54, MgCl2 3.2, HEPES 5, adjusted to pH 7.3 with KOH. Amphotericin-B solution is prepared as 50 mg/ml stock solution in DMSO and diluted to a final working concentration of 0.1 mg/ml in intracellular solution.
Compounds of use in the invention (or reference compounds such as N-cyclohexyl-N-[(7,8-dimethyl-2-oxo-1,2-dihydro-3-quinolinyl)methyl]-N′-phenylurea) are dissolved in dimethylsulfoxide (DMSO) at a stock concentration of 10 mM. […] Each dilution (1 μL) is transferred to another compound plate and external solution containing 0.05% pluronic acid (66 μL) is added. 3.5 μL from each plate containing a compound of the invention is added and incubated with the cells during the IonWorks Quattro™ experiment. The final assay dilution is 200 and the final compound concentrations are in the range 50 μM to 50 nM.

[3] = Table 2, Example compounds, some compounds with two data sets (n given in cell)

Compound: O=c1[nH]c2cccnc2n1-c1cnc(Oc2cccc3c2C2(CC2)CO3)cn1 [Example 8, 3-(5-spiro[2H-benzofuran-3,1′-cyclopropane]-4-yloxypyrazin-2-yl)-1H-imidazo[4,5-b]pyridin-2-one]
- Kp [1]: < 0.1
- Kp at 0.5 h [1]: < 0.1
- Kv3.1 max R % ([2]; Table 2, Example compounds): 204%
- EC50 [2, 3]: 200 nM

Compound: O=c1[nH]c2cccnc2n1-c1cnc(Oc2cccc3c2C2(CC2)CO3)nc1 [Example 13, 3-(2-{2H-spiro[1-benzofuran-3,1′-cyclopropane]oxy}pyrimidin-5-yl)-1H,2H,3H-imidazo[4,5-b]pyridin-2-one]
- Kp [1]: 0.12
- Kp at 0.5 h [1]: 0.13
- Kv3.1 max R % ([2]; Table 2, Example compounds): 194%
- EC50 [2, 3]: 200 nM

Compound: Cc1ncc2[nH]c(=O)n(-c3ccc(Oc4cccc(OC(F)(F)F)c4)nc3)c2n1 [Example 24, 2-methyl-9-[6-[3-(trifluoromethoxy)phenoxy]-3-pyridyl]-7H-purin-8-one]
- Kp [1]: 0.29
- Kp at 0.5 h [1]: 0.33
- Kv3.1 max R % ([2]; Table 2, Example compounds): 144%
- EC50 [2, 3]: 1000 nM

Compound: Cc1ncc2[nH]c(=O)n(-c3ccc(Oc4cccc5c4C4(CC4)CO5)nc3)c2n1 [Example 26, 2-methyl-9-(6-spiro[2H-benzofuran-3,1′-cyclopropane]-4-yloxy-3-pyridyl)-7H-purin-8-one]
- Kp [1]: < 0.1
- Kp at 0.5 h [1]: < 0.1
- Kv3.1 max R % ([2]; Table 2, Example compounds): 135%
- EC50 [2, 3]: 50.1 nM

Compound: CC1(C)COc2cccc(Oc3ncc(-n4c(=O)[nH]c5cccnc54)cn3)c21 [Example 33, 3-[2-[(3,3-dimethyl-2H-benzofuran-4-yl)oxy]pyrimidin-5-yl]-1H-imidazo[4,5-b]pyridin-2-one]
- Kp [1]: 0.65
- Kp at 0.5 h [1]: 0.63
- Kv3.1 max R % ([2]; Table 2, Example compounds): 194%
- EC50 [2, 3]: 794 nM
- EC50 ([2]; Table 3, Reference Examples and corresponding Examples): 631 nM
